#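 Following 48 hours of exposure in 96-well plates, responses at five concentrations were used to interpolate endpoints linearly. The concentration for 50% growth inhibition is given as GI50.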 Calls of active or inactive are those of the source. No stated cut-off is given here; in the data, active = GI50 up to about 1.1 µM and inactive = higher.
# Columns and labels:
# Assay in all cases: NCI tumour cell line growth inhibition, 48 h
# [1] = system: ACHN
# [2] = system: CCRF-CEM
# [3] = system: EKVX
# [4] = system: HCC 2998
# [5] = system: HOP-62
# [6] = system: IGROV-1
# [7] = system: K562
# [8] = system: KM12
# [9] = system: LOX IMVI
# [10] = system: MCF7
# [11] = system: MDA-MB-231
# [12] = system: Malme-3M
# [13] = system: NCI-H23
# [14] = system: OVCAR-5
# [15] = system: SF-295
# [16] = system: SK-MEL-28
# [17] = system: SK-MEL-5
# [18] = system: SN12C
# [19] = system: SR
# [20] = system: NCI-H226
SMILES,GI50 [1],GI50 [2],GI50 [3],GI50 [4],GI50 [5],GI50 [6],GI50 [7],GI50 [8],GI50 [9],GI50 [10],GI50 [11],GI50 [12],GI50 [13],GI50 [14],GI50 [15],GI50 [16],GI50 [17],GI50 [18],GI50 [19],GI50 [20]
COC1(c2ccccc2)N=C(S)NN=C1c1ccccc1 (centres undefined),> 100 µM (inactive),28.2 µM (inactive),89.9 µM (inactive),19.2 µM (inactive),44.8 µM (inactive),34.8 µM (inactive),33.4 µM (inactive),39.8 µM (inactive),36.1 µM (inactive),38 µM (inactive),27.5 µM (inactive),60.4 µM (inactive),36.6 µM (inactive),78.2 µM (inactive),30.5 µM (inactive),85.1 µM (inactive),29.5 µM (inactive),21 µM (inactive),29.4 µM (inactive),
S=C(CSc1ccccc1)Nc1cccc2ccccc12,39.7 µM (inactive),,58.9 µM (inactive),,77.3 µM (inactive),72.8 µM (inactive),40.2 µM (inactive),40.8 µM (inactive),50.6 µM (inactive),33.8 µM (inactive),80.2 µM (inactive),40.3 µM (inactive),41.4 µM (inactive),72.1 µM (inactive),23.8 µM (inactive),> 100 µM (inactive),18.5 µM (inactive),45.7 µM (inactive),22.5 µM (inactive),42 µM (inactive)
O=C(/C=C/c1ccc(O)c(O)c1)c1cc(O)cc(O)c1,14.7 µM (inactive),2 µM (inactive),20.6 µM (inactive),,21.4 µM (inactive),13.8 µM (inactive),,,5.42 µM (inactive),3.55 µM (inactive),12.8 µM (inactive),14.4 µM (inactive),12.3 µM (inactive),14.6 µM (inactive),19.7 µM (inactive),16.4 µM (inactive),> 100 µM (inactive),13 µM (inactive),5.24 µM (inactive),14.8 µM (inactive)
C[N+]1(c2ccccc2)C=C(c2ccccc2)SC1=S (centres undefined),> 100 µM (inactive),,18.1 µM (inactive),> 100 µM (inactive),> 100 µM (inactive),> 100 µM (inactive),42.7 µM (inactive),> 100 µM (inactive),> 100 µM (inactive),41.7 µM (inactive),> 100 µM (inactive),73.1 µM (inactive),> 100 µM (inactive),> 100 µM (inactive),> 100 µM (inactive),7.33 µM (inactive),33.4 µM (inactive),> 100 µM (inactive),> 100 µM (inactive),> 100 µM (inactive)
OC(CC(O)(C(F)(F)F)C(F)(F)F)C(O)c1ccco1 (centres undefined),> 10 µM (inactive),> 10 µM (inactive),> 10 µM (inactive),> 10 µM (inactive),> 10 µM (inactive),> 10 µM (inactive),> 10 µM (inactive),> 10 µM (inactive),> 10 µM (inactive),> 10 µM (inactive),> 10 µM (inactive),> 10 µM (inactive),> 10 µM (inactive),,> 10 µM (inactive),> 10 µM (inactive),> 10 µM (inactive),> 10 µM (inactive),> 10 µM (inactive),> 10 µM (inactive)
NC1=CN(Cc2ccccc2)C2=N/C(=C\c3ccco3)C(=O)N12,> 100 µM (inactive),> 100 µM (inactive),> 100 µM (inactive),> 100 µM (inactive),> 100 µM (inactive),> 100 µM (inactive),> 100 µM (inactive),> 100 µM (inactive),> 100 µM (inactive),> 100 µM (inactive),> 100 µM (inactive),> 100 µM (inactive),> 100 µM (inactive),> 100 µM (inactive),> 100 µM (inactive),> 100 µM (inactive),> 100 µM (inactive),> 100 µM (inactive),,> 100 µM (inactive)
Cc1c2c(c(C)c3c[n+](C)ccc13)Oc1ccccc1O2,34.9 µM (inactive),3.87 µM (inactive),9.44 µM (inactive),6.56 µM (inactive),8.89 µM (inactive),13.9 µM (inactive),3.59 µM (inactive),0.82 µM (active),22.3 µM (inactive),9.12 µM (inactive),24.6 µM (inactive),2.56 µM (inactive),6.9 µM (inactive),18.2 µM (inactive),5.69 µM (inactive),13.7 µM (inactive),4.32 µM (inactive),1.77 µM (inactive),,5.66 µM (inactive)
Cc1cc(N(CCCCl)CCCCl)ccc1/C=N/c1cccc(Cl)c1,13.1 µM (inactive),,,< 0.01 µM (active),,13.2 µM (inactive),7.26 µM (inactive),13.5 µM (inactive),13.8 µM (inactive),16.2 µM (inactive),14 µM (inactive),8.79 µM (inactive),< 0.01 µM (active),1.2 µM (inactive),17.6 µM (inactive),17.4 µM (inactive),14.4 µM (inactive),16.7 µM (inactive),11.8 µM (inactive),< 0.01 µM (active)
O=C(NC12CC3CC(CC(C3)C1)C2)n1cnc2c(Cl)ncnc21,21.2 µM (inactive),7.71 µM (inactive),25.8 µM (inactive),19.1 µM (inactive),37.5 µM (inactive),18.5 µM (inactive),25.8 µM (inactive),> 100 µM (inactive),18.7 µM (inactive),> 100 µM (inactive),42.8 µM (inactive),> 100 µM (inactive),22.7 µM (inactive),> 100 µM (inactive),59.8 µM (inactive),42.9 µM (inactive),24.2 µM (inactive),> 100 µM (inactive),10.8 µM (inactive),
Nc1nc(=O)c(/N=N/c2ccccc2)c(C(=O)O)[nH]1,> 100 µM (inactive),40.1 µM (inactive),23.3 µM (inactive),,55.3 µM (inactive),85.7 µM (inactive),54.6 µM (inactive),> 100 µM (inactive),74.6 µM (inactive),79.3 µM (inactive),> 100 µM (inactive),85.3 µM (inactive),> 100 µM (inactive),> 100 µM (inactive),56.6 µM (inactive),> 100 µM (inactive),93.8 µM (inactive),96.6 µM (inactive),35.3 µM (inactive),> 100 µM (inactive)
Cn1c(N/N=C/c2ccccc2)nc(-c2ccc3c(c2)OCO3)c(C#N)c1=O,59.3 µM (inactive),94 µM (inactive),70.6 µM (inactive),,> 100 µM (inactive),20.9 µM (inactive),87.3 µM (inactive),88.1 µM (inactive),55.6 µM (inactive),> 100 µM (inactive),14 µM (inactive),> 100 µM (inactive),> 100 µM (inactive),> 100 µM (inactive),84.9 µM (inactive),> 100 µM (inactive),69 µM (inactive),65.2 µM (inactive),25.5 µM (inactive),
O=C(Nc1ccccc1)c1cc(S(=O)(=O)Nc2n[nH]c(=O)n2-c2ccccc2)c(S)cc1Cl,,,> 100 µM (inactive),> 100 µM (inactive),,> 100 µM (inactive),> 100 µM (inactive),> 100 µM (inactive),> 100 µM (inactive),> 100 µM (inactive),> 100 µM (inactive),> 100 µM (inactive),,> 100 µM (inactive),,> 100 µM (inactive),> 100 µM (inactive),> 100 µM (inactive),> 100 µM (inactive),> 100 µM (inactive)
COC(=O)[C@@H]1COC(=O)N1,> 100 µM (inactive),> 100 µM (inactive),> 100 µM (inactive),> 100 µM (inactive),> 100 µM (inactive),> 100 µM (inactive),> 100 µM (inactive),> 100 µM (inactive),> 100 µM (inactive),> 100 µM (inactive),> 100 µM (inactive),> 100 µM (inactive),> 100 µM (inactive),> 100 µM (inactive),> 100 µM (inactive),> 100 µM (inactive),> 100 µM (inactive),> 100 µM (inactive),,> 100 µM (inactive)
C[C@@H]1C[C@H]2[C@@H]3CCC4=CC(=O)C=C[C@]4(C)[C@@]3(Cl)[C@@H](Cl)C[C@]2(C)[C@@]1(O)C(=O)COP(=O)(O)O,> 100 µM (inactive),,> 100 µM (inactive),> 100 µM (inactive),> 100 µM (inactive),> 100 µM (inactive),7.41 µM (inactive),> 100 µM (inactive),> 100 µM (inactive),> 100 µM (inactive),> 100 µM (inactive),> 100 µM (inactive),> 100 µM (inactive),> 100 µM (inactive),> 100 µM (inactive),> 100 µM (inactive),> 100 µM (inactive),17.6 µM (inactive),11.4 µM (inactive),> 100 µM (inactive)
CN(C)Cc1cc(C(=O)/C=C/c2ccc([N+](=O)[O-])cc2)cc(CN(C)C)c1O,3.33 µM (inactive),3.3 µM (inactive),12.8 µM (inactive),17.4 µM (inactive),3.72 µM (inactive),12.2 µM (inactive),4.13 µM (inactive),11.9 µM (inactive),2.24 µM (inactive),13.3 µM (inactive),14.9 µM (inactive),,18.3 µM (inactive),16.6 µM (inactive),22.3 µM (inactive),,11.3 µM (inactive),7.8 µM (inactive),4.12 µM (inactive),3.9 µM (inactive)
